System: B16F0 melanoma tumour
Assay: Biodistribution in B16 melanoma bearing mice
Format: in vivo, C57BL/6J mice
Conditions: B16 melanoma bearing mice
Method: Animal experiments were performed in compliance with the NHMRC Australian Code of Practice for the care and use of animals for scientific purposes. Female C57BL/6J black and BALB/c nude albino mice of 5 weeks age were obtained from the Animal Resources Centre, Western Australia. B16F0 murine melanoma cells were originally obtained from European Collection of Cell Cultures (UK) and A375 human amelanotic melanoma cells were originally obtained from American Type Culture Collection (USA). Before transplantation, B16F0 and A375 melanoma cells were maintained as a monolayer in RPMI culture medium supplemented with 10% foetal calf serum and antibiotics and passaged with trypsinisation. Early passages were frozen and stored in liquid nitrogen. Cells were passaged to P=10 and then discarded. Frozen aliquots were grown in a monolayer culture to between 80-95% confluence and for transplantation were trypsinised and washed with Ca^2+ and Mg^2+ free phosphate buffered saline (PBS). For inoculation, B16F0 melanoma cells were resuspended in Ca^2+ and Mg^2+ free PBS at 3 or 5×10^6 viable cells per ml and 0.1 ml was subcutaneously injected at the left flank of 6-7 weeks old C57BL/6J mice. Eleven days later, tumours could be palpated in >98% of inoculated animals. A375 human melanoma cells were resuspended at 1×10^7 viablecells per ml and 0.1 ml was injected subcutaneously at the left flank of 6 weeks old BALB/c nude mice and 25-26 days later tumours could be palpated with ˜60% of inoculated animals developing tumours.
Eleven days (B16F0 melanoma) and 25 days (A375 human melanoma) after tumour transplantation, the [^18F]nicotinamides (0.5-1.5 MBq, 100 μl) and [^123I]nicotinamide (0.37-0.74 MBq, 100 μl) derivatives were injected intravenously via the tail vein into mice (15-18 g). Time points of 1, 3, 6, 24, 48, 72 h after injection were chosen for determining the distribution of each compound in various organs and tissues for the iodine-123 labelled compounds and between 15 min and 6 hours (e.g. 15 min, 30 min, 1 h, 2 h, 4 h or 6 h) were chosen for the ^18F-labelled compounds. At defined times post injection, groups of mice (n=5) were weighed, sacrificed by CO2 administration followed by cervical dislocation and dissected. Selected organs were weighed and their radioactivity measured with a γ-counter. The remaining activity in the carcass was also determined in order to obtain the total activity in the mouse at defined time points. The fraction of injected activity (% ID) in the organ was calculated by comparison with suitable dilutions of the injected dose. Then, the radioactivity concentration in the organ (% ID/g) was found by dividing the % ID for each organ by the weight of the organ.

- uptake BLOOD (15 min): 2.048 % ID/g
- uptake BONE (15 min): 3.493 % ID/g
- uptake BRAIN (15 min): 2.471 % ID/g
- uptake EYES (15 min): 14.678 % ID/g
- uptake GIT (15 min): 5.421 % ID/g
- uptake HEART (15 min): 3.153 % ID/g
- uptake KIDNEY (15 min): 14.117 % ID/g
- uptake LIVER (15 min): 10.148 % ID/g
- uptake LUNGS (15 min): 5.616 % ID/g
- uptake MUSCLE (15 min): 3.796 % ID/g
- uptake SKIN (15 min): 2.214 % ID/g
- uptake SPLEEN (15 min): 8.585 % ID/g
- uptake STOMACH (15 min): 9.344 % ID/g
- uptake THYROID (15 min): 5.515 % ID/g
- uptake TUMOUR (15 min): 6.970 % ID/g
- uptake BLOOD (30 min): 1.218 % ID/g
- uptake BONE (30 min): 2.078 % ID/g
- uptake BRAIN (30 min): 1.997 % ID/g
- uptake EYES (30 min): 15.976 % ID/g
- uptake GIT (30 min): 3.855 % ID/g
- uptake HEART (30 min): 1.902 % ID/g
- uptake KIDNEY (30 min): 9.595 % ID/g
- uptake LIVER (30 min): 5.825 % ID/g
- uptake LUNGS (30 min): 2.922 % ID/g
- uptake MUSCLE (30 min): 2.240 % ID/g
- uptake SKIN (30 min): 1.473 % ID/g
- uptake SPLEEN (30 min): 7.225 % ID/g
- uptake STOMACH (30 min): 6.639 % ID/g
- uptake THYROID (30 min): 2.537 % ID/g
- uptake TUMOUR (30 min): 8.582 % ID/g
- uptake BLOOD (1 h): 0.619 % ID/g
- uptake BONE (1 h): 1.368 % ID/g
- uptake BRAIN (1 h): 1.096 % ID/g
- uptake EYES (1 h): 18.808 % ID/g
- uptake GIT (1 h): 2.102 % ID/g
- uptake HEART (1 h): 0.977 % ID/g
- uptake KIDNEY (1 h): 3.446 % ID/g
- uptake LIVER (1 h): 2.813 % ID/g
- uptake LUNGS (1 h): 1.632 % ID/g
- uptake MUSCLE (1 h): 1.248 % ID/g
- uptake SKIN (1 h): 0.766 % ID/g
- uptake SPLEEN (1 h): 2.393 % ID/g
- uptake STOMACH (1 h): 3.370 % ID/g
- uptake THYROID (1 h): 3.327 % ID/g
- uptake TUMOUR (1 h): 8.376 % ID/g
- uptake BLOOD (2 h): 0.147 % ID/g
- uptake BONE (2 h): 0.578 % ID/g
- uptake BRAIN (2 h): 0.270 % ID/g
- uptake EYES (2 h): 17.281 % ID/g
- uptake GIT (2 h): 0.708 % ID/g
- uptake HEART (2 h): 0.246 % ID/g
- uptake KIDNEY (2 h): 0.676 % ID/g
- uptake LIVER (2 h): 0.693 % ID/g
- uptake LUNGS (2 h): 0.386 % ID/g
- uptake MUSCLE (2 h): 0.276 % ID/g
- uptake SKIN (2 h): 0.356 % ID/g
- uptake SPLEEN (2 h): 1.848 % ID/g
- uptake STOMACH (2 h): 1.472 % ID/g
- uptake THYROID (2 h): 0.609 % ID/g
- uptake TUMOUR (2 h): 9.416 % ID/g
- uptake BLOOD (3 h): 0.111 % ID/g
- uptake BONE (3 h): 0.624 % ID/g
- uptake BRAIN (3 h): 0.150 % ID/g
- uptake EYES (3 h): 17.276 % ID/g
- uptake GIT (3 h): 0.541 % ID/g
- uptake HEART (3 h): 0.166 % ID/g
- uptake KIDNEY (3 h): 0.394 % ID/g
- uptake LIVER (3 h): 0.491 % ID/g
- uptake LUNGS (3 h): 0.253 % ID/g
- uptake MUSCLE (3 h): 0.201 % ID/g
- uptake SKIN (3 h): 0.172 % ID/g
- uptake SPLEEN (3 h): 0.890 % ID/g
- uptake STOMACH (3 h): 0.828 % ID/g
- uptake THYROID (3 h): 0.488 % ID/g
- uptake TUMOUR (3 h): 7.753 % ID/g
- uptake BLOOD (6 h): 0.020 % ID/g
- uptake BONE (6 h): 0.515 % ID/g
- uptake BRAIN (6 h): 0.039 % ID/g
- uptake EYES (6 h): 15.591 % ID/g
- uptake GIT (6 h): 0.135 % ID/g
- uptake HEART (6 h): 0.054 % ID/g
- uptake KIDNEY (6 h): 0.075 % ID/g
- uptake LIVER (6 h): 0.123 % ID/g
- uptake LUNGS (6 h): 0.066 % ID/g
- uptake MUSCLE (6 h): 0.032 % ID/g
- uptake SKIN (6 h): 0.041 % ID/g
- uptake SPLEEN (6 h): 0.470 % ID/g
- uptake STOMACH (6 h): 0.193 % ID/g
- uptake THYROID (6 h): 0.168 % ID/g
- uptake TUMOUR (6 h): 7.747 % ID/g
- uptake in melanin containing tissue (tumour and eyes) (six hour period): high uptake
- washout in all other tissue (six hour period): rapid washout
Compound: CCN(CC)CCNC(=O)c1ccc(F)nc1 [[^18F]MEL2, 6-Fluoro-N-[2-(diethylamino)ethyl]nicotinamide]

From patent US20110178396A1, “Nicotinamide Derivatives” (CRC FOR BIOMEDICAL IMAGING DEVELOPMENT LTD., priority 2008, published 2011)
